Test results: PubChem BioAssay (NCI)
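Cultured in 96-well plates, cells were exposed to test compound for 48 hours across five concentrations. TGI denotes the concentration required for complete inhibition of growth.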

Experiments:
Assay in all cases: NCI tumour cell line growth inhibition, 48 h
[1] = system: SK-OV-3 ovarian
[2] = system: M14 melanoma
[3] = system: RXF 393 renal
[4] = system: IGROV1 ovarian
[5] = system: NCI-H460 lung
[6] = system: COLO 205 colon
[7] = system: MALME-3M melanoma
[8] = system: UO-31 renal
[9] = system: A498 renal
[10] = system: BT-549 breast
[11] = system: MDA-N

`CC(C)c1cccc(C(C)C)c1NC(=O)C(=O)Cc1nc2ccc([N+](=O)[O-])cc2[nH]c1=O` was tested, and the TGI [1] was over 100 µM, the TGI [2] was over 100 µM and the TGI [3] was over 100 µM. It also gave a TGI [4] of over 100 µM, a TGI [5] of over 100 µM and a TGI [6] of over 100 µM. The TGI [7] was over 100 µM, the TGI [8] was over 100 µM and the TGI [9] was over 100 µM.
Molecule `CN(C)CCN(C)P12(Oc3ccccc3O1)Oc1c(Cl)c(Cl)c(Cl)c(Cl)c1O2` has a TGI [10] of over 100 µM, a TGI [1] of over 100 µM and a TGI [2] of over 100 µM. It also gave a TGI [4] of over 100 µM, a TGI [5] of over 100 µM and a TGI [6] of over 100 µM. It also gave a TGI [11] of over 100 µM, a TGI [7] of over 100 µM and a TGI [8] of over 100 µM. For the same molecule, the TGI [9] was over 100 µM.
Molecule `CCCCOCCOCCOC1=CC(=O)c2c(O)ccc(O)c2C1=O` has a TGI [10] of 3.16 µM, a TGI [1] of over 10 µM and a TGI [2] of 2.85 µM. The TGI [3] was 3.63 µM, the TGI [4] was 3.38 µM and the TGI [5] was 3.69 µM. The TGI [6] was 2.74 µM, the TGI [11] was 0.329 µM and the TGI [7] was 1.49 µM. For the same molecule, the TGI [8] was 2.93 µM.
`CC1(C)C2CCC3CC(CCC#N)CCC3C21C#N` (centres undefined) was tested, and the TGI [1] was over 100 µM, the TGI [2] was over 100 µM and the TGI [3] was over 100 µM. The TGI [4] was over 100 µM, the TGI [5] was over 100 µM and the TGI [6] was over 100 µM. For the same molecule, the TGI [11] was over 100 µM, the TGI [7] was over 100 µM and the TGI [8] was over 100 µM. For the same molecule, the TGI [9] was over 100 µM.
`Cc1c(C)c2c(c(N)c1C#N)C(=O)N(O)C2=O` gave a TGI [10] of over 100 µM, a TGI [1] of over 100 µM and a TGI [2] of over 100 µM. It also gave a TGI [3] of over 100 µM, a TGI [4] of over 100 µM and a TGI [5] of over 100 µM. The TGI [6] was over 100 µM, the TGI [7] was over 100 µM and the TGI [8] was over 100 µM. The TGI [9] was over 100 µM.
In the case of `COC(=O)C1CC2C=CC=CC(=O)C2(C)C1` (centres undefined), the TGI [1] is reported as over 100 µM, the TGI [2] is reported as 88.5 µM and the TGI [4] is reported as over 100 µM. For the same molecule, the TGI [5] was over 100 µM, the TGI [6] was over 100 µM and the TGI [7] was over 100 µM. The TGI [8] was over 100 µM and the TGI [9] was over 100 µM.
`CCNC(=O)C(C)C1CCC2(C)C=CC(=O)C(C)=C2C1O` (centres undefined) showed a TGI [1] of over 100 µM, a TGI [3] of over 100 µM and a TGI [4] of over 100 µM. For the same molecule, the TGI [5] was over 100 µM, the TGI [6] was over 100 µM and the TGI [8] was over 100 µM. It also gave a TGI [9] of over 100 µM.
Molecule `CC(C)Oc1c(C2(c3ccccc3)SCCCS2)c(=O)c1=O` has a TGI [10] of over 100 µM, a TGI [1] of over 100 µM and a TGI [2] of over 100 µM. For the same molecule, the TGI [3] was over 100 µM, the TGI [4] was over 100 µM and the TGI [5] was over 100 µM. The TGI [6] was over 100 µM, the TGI [11] was over 100 µM and the TGI [8] was over 100 µM. It also gave a TGI [9] of over 100 µM.
`CSc1ncnc2c1cnn2Cc1cnnn1COCC(O)CO` (centres undefined) showed a TGI [10] of over 100 µM, a TGI [1] of over 100 µM and a TGI [2] of over 100 µM. For the same molecule, the TGI [4] was over 100 µM, the TGI [6] was over 100 µM and the TGI [11] was over 100 µM. The TGI [8] was over 100 µM and the TGI [9] was over 100 µM.
`OCC#CCNCl` showed a TGI [1] of over 100 µM, a TGI [3] of over 100 µM and a TGI [4] of over 100 µM. For the same molecule, the TGI [5] was over 100 µM, the TGI [6] was over 100 µM and the TGI [7] was over 100 µM. For the same molecule, the TGI [8] was over 100 µM and the TGI [9] was over 100 µM.
`C/C(=C/C(=O)Nc1ccccc1)Nc1onc(C)c1C` showed a TGI [1] of over 100 µM, a TGI [3] of over 100 µM and a TGI [4] of over 100 µM. The TGI [5] was over 100 µM, the TGI [6] was over 100 µM and the TGI [7] was over 100 µM. It also gave a TGI [8] of over 100 µM and a TGI [9] of over 100 µM.
Work on `Cc1ccc(/C=C2\Sc3scc(-c4ccccc4)[n+]3C2=O)cc1` yielded a TGI [10] of 50.9 µM, a TGI [1] of over 67.6 µM and a TGI [2] of over 94.9 µM. It also gave a TGI [3] of 90.2 µM, a TGI [4] of over 56.8 µM and a TGI [5] of 42.4 µM. It also gave a TGI [6] of 52.4 µM, a TGI [11] of over 67.1 µM and a TGI [8] of 32 µM.
With `COC(=O)C1(NC(=O)C(Cc2ccccc2)N(C(=O)OC(C)(C)C)C(=O)OC(C)(C)C)CCCC1` (centres undefined) the TGI [1] was over 100 µM, the TGI [2] was over 100 µM and the TGI [4] was over 100 µM. It also gave a TGI [5] of over 100 µM, a TGI [6] of over 100 µM and a TGI [11] of over 100 µM. It also gave a TGI [8] of over 100 µM and a TGI [9] of over 100 µM.
`Cc1cc2ncn(-c3nc4ccccc4nc3C(C#N)S(C)(=O)=O)c2cc1C` (centres undefined) was tested, and the TGI [1] was over 100 µM, the TGI [2] was over 100 µM and the TGI [4] was over 100 µM. For the same molecule, the TGI [5] was over 100 µM, the TGI [6] was over 100 µM and the TGI [7] was over 100 µM. It also gave a TGI [8] of over 100 µM and a TGI [9] of over 100 µM.
For `CC(=O)OI1NC(=O)c2ccccc21`, the TGI [1] was over 100 µM, the TGI [2] was over 100 µM and the TGI [4] was over 100 µM. It also gave a TGI [6] of over 100 µM, a TGI [11] of over 100 µM and a TGI [7] of over 100 µM. The TGI [8] was over 100 µM and the TGI [9] was over 100 µM.
`S=c1sc2c(s1)SC(c1ccccc1)CS2` (centres undefined) was tested, and the TGI [1] was over 100 µM, the TGI [3] was 91.5 µM and the TGI [4] was over 100 µM. It also gave a TGI [5] of over 100 µM, a TGI [6] of over 100 µM and a TGI [7] of over 100 µM. It also gave a TGI [8] of over 100 µM and a TGI [9] of over 100 µM.
`CC(C)[C@@H]1CC[C@@H](C)C[C@H]1OC(=O)c1c2n(c3ccccc13)C[C@H]1OC(C)(C)O[C@@H]21` gave a TGI [10] of over 100 µM, a TGI [1] of over 100 µM and a TGI [2] of over 100 µM. It also gave a TGI [3] of 82.9 µM, a TGI [4] of over 100 µM and a TGI [6] of over 100 µM. It also gave a TGI [11] of over 100 µM, a TGI [7] of over 100 µM and a TGI [8] of over 100 µM.
With `N#CC(NNC(=O)Cc1ccccc1)c1cccc(O)c1` (centres undefined) the TGI [1] was over 100 µM, the TGI [2] was over 100 µM and the TGI [3] was over 100 µM. The TGI [4] was over 100 µM, the TGI [5] was over 100 µM and the TGI [6] was over 100 µM. For the same molecule, the TGI [7] was over 100 µM and the TGI [8] was over 100 µM.
`CC(C)=CCCC(C)(OC1OC(CO)C(O)C(O)C1O)C1CCC2(C)C1C(O)CC1C3(C)CCC(O)C(C)(C)C3C(OC3OC(CO)C(O)C(O)C3OC3OC(C)C(O)C(O)C3O)CC12C` (centres undefined) (tested in a mixture with another compound) showed a TGI [10] of over 75 µM, a TGI [1] of over 75 µM and a TGI [2] of over 75 µM. It also gave a TGI [4] of over 75 µM, a TGI [5] of over 7.5 µM and a TGI [6] of over 75 µM. The TGI [11] was over 75 µM, the TGI [8] was over 75 µM and the TGI [9] was over 75 µM.
Molecule `CC1=C(c2nc3ccccc3s2)C(=O)OC1(C)C` has a TGI [1] of over 100 µM, a TGI [2] of over 100 µM and a TGI [5] of over 100 µM. The TGI [6] was over 100 µM, the TGI [7] was over 100 µM and the TGI [8] was over 100 µM.
In the case of `CCC(NC(C)c1ccccc1)C(=O)c1ccc(OCc2ccccc2)c(OCc2ccccc2)c1` (centres undefined), the TGI [10] is reported as over 100 µM, the TGI [1] is reported as over 100 µM and the TGI [2] is reported as over 100 µM. For the same molecule, the TGI [3] was over 100 µM, the TGI [4] was over 100 µM and the TGI [5] was over 100 µM. For the same molecule, the TGI [6] was over 100 µM, the TGI [11] was over 100 µM and the TGI [7] was over 100 µM. It also gave a TGI [8] of over 100 µM.
In the case of `CCc1n[nH]c(=O)n1CCCCCCCCn1c(CC)n[nH]c1=O`, the TGI [10] is reported as over 100 µM, the TGI [1] is reported as over 100 µM and the TGI [2] is reported as over 100 µM. It also gave a TGI [3] of over 100 µM, a TGI [4] of over 100 µM and a TGI [5] of over 100 µM. For the same molecule, the TGI [6] was over 100 µM, the TGI [11] was over 100 µM and the TGI [7] was over 100 µM. The TGI [8] was over 100 µM.
With `CCCCCCCC/C=C1\CCC(CN(C)C)C1=O` (centres undefined) the TGI [1] was 30.9 µM, the TGI [2] was 12 µM and the TGI [4] was 20.8 µM. It also gave a TGI [5] of 28.4 µM, a TGI [6] of 14.8 µM and a TGI [7] of 14.3 µM. The TGI [8] was 25.2 µM and the TGI [9] was 30.7 µM.
`CNC(=O)c1n[nH]n(C2CCCCC2)c1=S` was tested, and the TGI [1] was over 100 µM, the TGI [2] was over 100 µM and the TGI [3] was over 100 µM. It also gave a TGI [4] of over 100 µM, a TGI [5] of over 100 µM and a TGI [6] of over 100 µM. For the same molecule, the TGI [11] was over 100 µM, the TGI [7] was over 100 µM and the TGI [8] was over 100 µM. For the same molecule, the TGI [9] was over 100 µM.
